Read-outs that look alike come from different tables or passages of the source.
Legend:
[1] = system: RCC I; assay: RCC I activity in submitochondrial particles; assay type: biochemical, rat; parameters: key to RCC I at 10XCmax / RCC I at 100XCmax / RCC I at 50XCmax / RCC I at 30XCmax / RCC I at 20XCmax: activity relative to DMSO-treated controls (control set as 1 = 100%); settings: 10XCmax; relative to DMSO treated samples
Summary of the method: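 Abs 340 nm (I/V) or 600 nm (II), 1-min reads × 6 min; 550 nm (III, IV), 10-s reads × 2 min. RCC I = rotenone-free minus rotenone rate. DMSO control = 1.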

[2] = system: isolated rat liver mitochondria; assay: Mitochondrial ROS production (CM-H2DCFDA); settings: DMSO treated samples set as 1
[3] = system: isolated rat liver mitochondria; assay: Mitochondrial inner membrane potential (MMP), Rhodamine 123; assay type: biochemical; settings: difference in signal between KI and DMSO treated samples at the end of experiments
Description: Fig. 3 KI effects on mitochondrial inner membrane potential (MMP). […] In a, c, data are means and standard derivations from three separate experiments. *p < 0.05 as compared to DMSO-treated samples at the end of experiments. In b, data are means of two independent experiments

[4] = therapeutic maximal blood concentration, ref product labeling, cited from earlier work
[5] = system: RCC IV; assay: RCC IV activity in submitochondrial particles; assay type: biochemical, rat; parameters: key to RCC IV at 50XCmax / RCC IV at 100XCmax: activity relative to DMSO-treated controls (control set as 1 = 100%); settings: 50XCmax; relative to DMSO treated samples; in %
Summary of the method: (§1)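 Kinase inhibitors were preincubated 15 min with submitochondrial particles (1 mg/ml) before complex activities were measured. RCC I was the rotenone-sensitive portion (activity without minus with rotenone). RCC I/V was read at 340 nm and RCC II at 600 nm every 1 min for 6 min. RCC III and IV were read at 550 nm every 10 s for 2 min. Activities are normalized to DMSO controls set as 1.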

[6] = system: RCC III; assay: RCC III activity in submitochondrial particles; assay type: biochemical, rat; parameters: key to RCC III at 100XCmax: activity relative to DMSO-treated controls (control set as 1 = 100%); settings: 100XCmax; relative to DMSO treated samples
Summary of the method: as §1

[7] = system: isolated rat liver mitochondria; assay: Mitochondrial oxygen consumption (glutamate/malate or succinate driven, state 4 and state 3); assay type: biochemical; settings: DMSO treated samples set as 1; for State 3 respiration driven by succinate at 10XCmax: key: 0 indicates that the drug had no effects (negative); for State 3 respiration driven by succinate at 1XCmax: key: 0 indicates that the drug had no effects (negative)
Summary of the method: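 Rat liver mitochondria (1 mg/ml protein) exposed 5 min to kinase inhibitors in 0.1% DMSO, then O2 consumption measured by Clark-type electrode with glutamate/malate or succinate (state 4), ADP added after 3 min (state 3). Rates normalized to 0.1% DMSO controls set to 1.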

[8] = biological target: T1, RCC II (Rattus norvegicus, UniProt P21913+Q641Z9+Q6PCT8+Q920L2); assay: RCC II activity in submitochondrial particles; assay type: biochemical; parameters: key: activity relative to DMSO-treated controls (control set as 1 = 100%); settings: relative to DMSO treated samples
T1 construct: Submitochondrial particles were prepared by subjecting the intact mitochondria to three successive freeze–thaw cycles; from tissue; host or cells: rat liver mitochondria, used as submitochondrial particles
Summary of the method: as §1

[9] = system: isolated rat liver mitochondria; settings: positive control alamethicin treated samples

T1 sequence (Q920L2 35-656): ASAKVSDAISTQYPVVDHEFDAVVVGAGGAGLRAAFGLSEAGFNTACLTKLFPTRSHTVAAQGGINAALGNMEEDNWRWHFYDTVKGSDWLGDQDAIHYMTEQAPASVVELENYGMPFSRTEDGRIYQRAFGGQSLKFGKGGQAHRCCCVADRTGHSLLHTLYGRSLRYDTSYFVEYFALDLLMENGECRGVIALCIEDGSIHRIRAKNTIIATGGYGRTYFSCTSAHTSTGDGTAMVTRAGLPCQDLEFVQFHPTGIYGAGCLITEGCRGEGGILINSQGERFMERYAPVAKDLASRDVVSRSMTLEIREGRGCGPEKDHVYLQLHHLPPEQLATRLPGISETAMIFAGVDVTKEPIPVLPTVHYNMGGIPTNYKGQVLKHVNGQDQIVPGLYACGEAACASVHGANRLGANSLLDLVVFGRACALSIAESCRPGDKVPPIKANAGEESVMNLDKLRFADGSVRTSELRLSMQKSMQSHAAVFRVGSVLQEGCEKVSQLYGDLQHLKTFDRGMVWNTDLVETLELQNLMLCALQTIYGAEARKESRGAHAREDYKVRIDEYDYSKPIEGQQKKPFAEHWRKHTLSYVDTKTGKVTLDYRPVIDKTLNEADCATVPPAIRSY
T1 sequence (P21913 31-282): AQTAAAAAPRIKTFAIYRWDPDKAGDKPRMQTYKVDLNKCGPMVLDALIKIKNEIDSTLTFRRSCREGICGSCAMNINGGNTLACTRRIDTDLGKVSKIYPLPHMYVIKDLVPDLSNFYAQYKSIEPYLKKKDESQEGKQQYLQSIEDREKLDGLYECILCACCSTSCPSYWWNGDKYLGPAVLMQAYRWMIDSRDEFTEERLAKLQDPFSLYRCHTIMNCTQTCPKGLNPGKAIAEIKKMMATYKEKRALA
T1 sequence (Q641Z9 1-169): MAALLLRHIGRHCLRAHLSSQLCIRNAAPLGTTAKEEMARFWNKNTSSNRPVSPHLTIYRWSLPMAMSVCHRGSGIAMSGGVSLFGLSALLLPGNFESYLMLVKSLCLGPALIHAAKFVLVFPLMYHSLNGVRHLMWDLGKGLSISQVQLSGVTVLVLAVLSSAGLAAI
T1 sequence (Q6PCT8 57-159): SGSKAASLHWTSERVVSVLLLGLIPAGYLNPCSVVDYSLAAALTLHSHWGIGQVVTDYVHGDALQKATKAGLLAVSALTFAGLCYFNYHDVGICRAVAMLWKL

N#CC[C@H](C1CCCC1)n1cc(-c2ncnc3[nH]ccc23)cn1 [ruxolitinib phosphate]
RCC I at 10XCmax [1]: 0
ROS measured by CM-H2DCFDA at 1XCmax ([2]; 1XCmax): 0
ROS measured by CM-H2DCFDA at 2.5XCmax ([2]; 2.5XCmax): 0
ROS measured by CM-H2DCFDA at 5XCmax ([2]; 5XCmax): 0
ROS measured by CM-H2DCFDA at 10XCmax ([2]; 10XCmax): 0
ROS measured by CM-H2DCFDA at 20XCmax ([2]; 20XCmax): 0
ROS measured by CM-H2DCFDA at 30XCmax ([2]; 30XCmax): 0
ROS measured by CM-H2DCFDA at 50XCmax ([2]; 50XCmax): 0
ROS measured by CM-H2DCFDA at 100XCmax ([2]; 100XCmax): 0
MMP measured by Rhodamine 123 at 1XCmax ([3]; 1XCmax): 0
MMP measured by Rhodamine 123 at 2.5XCmax ([3]; 2.5XCmax): 0
MMP measured by Rhodamine 123 at 5XCmax ([3]; 5XCmax): 0
MMP measured by Rhodamine 123 at 10XCmax ([3]; 10XCmax): 0
MMP measured by Rhodamine 123 at 20XCmax ([3]; 20XCmax): 0
MMP measured by Rhodamine 123 at 30XCmax ([3]; 30XCmax): 0
MMP measured by Rhodamine 123 at 50XCmax ([3]; 50XCmax): 0
MMP measured by Rhodamine 123 at 100XCmax ([3]; 100XCmax): 0
Cmax ([4]; read-out: Cmax at µM): 1.2 µM
Cmax [4]: 0.368 µg/mL
RCC IV at 50XCmax [5]: 0
RCC III at 100XCmax [6]: 0
State 3 respiration driven by glutamate/malate at 1XCmax ([7]; 1XCmax): 0
State 3 respiration driven by succinate at 1XCmax ([7]; 1XCmax): 0
State 4 respiration driven by glutamate/malate at 1XCmax ([7]; 1XCmax): 0
State 4 respiration driven by succinate at 1XCmax ([7]; 1XCmax): 0
State 3 respiration driven by glutamate/malate at 2.5XCmax ([7]; 2.5XCmax): 0
State 3 respiration driven by succinate at 2.5XCmax ([7]; 2.5XCmax): 0
State 4 respiration driven by glutamate/malate at 2.5XCmax ([7]; 2.5XCmax): 0
State 4 respiration driven by succinate at 2.5XCmax ([7]; 2.5XCmax): 0
State 3 respiration driven by glutamate/malate at 5XCmax ([7]; 5XCmax): 0
State 3 respiration driven by succinate at 5XCmax ([7]; 5XCmax): 0
State 4 respiration driven by glutamate/malate at 5XCmax ([7]; 5XCmax): 0
State 4 respiration driven by succinate at 5XCmax ([7]; 5XCmax): 0
State 3 respiration driven by glutamate/malate at 10XCmax ([7]; 10XCmax): 0
State 3 respiration driven by succinate at 10XCmax ([7]; 10XCmax): 0
State 4 respiration driven by glutamate/malate at 10XCmax ([7]; 10XCmax): 0
State 4 respiration driven by succinate at 10XCmax ([7]; 10XCmax): 0
State 3 respiration driven by glutamate/malate at 20XCmax ([7]; 20XCmax): 0.62±0.05
State 3 respiration driven by succinate at 20XCmax ([7]; 20XCmax): 0
State 4 respiration driven by glutamate/malate at 20XCmax ([7]; 20XCmax): 0
State 4 respiration driven by succinate at 20XCmax ([7]; 20XCmax): 0
State 3 respiration driven by glutamate/malate at 30XCmax ([7]; 30XCmax): 0.54±0.02
State 3 respiration driven by succinate at 30XCmax ([7]; 30XCmax): 0
State 4 respiration driven by glutamate/malate at 30XCmax ([7]; 30XCmax): 0
State 4 respiration driven by succinate at 30XCmax ([7]; 30XCmax): 0
State 3 respiration driven by glutamate/malate at 50XCmax ([7]; 50XCmax): 0.49±0.06
State 3 respiration driven by succinate at 50XCmax ([7]; 50XCmax): 0
State 4 respiration driven by glutamate/malate at 50XCmax ([7]; 50XCmax): 0
State 4 respiration driven by succinate at 50XCmax ([7]; 50XCmax): 0
State 3 respiration driven by glutamate/malate at 100XCmax ([7]; 100XCmax): 0.28±0.06
State 3 respiration driven by succinate at 100XCmax ([7]; 100XCmax): 0
State 4 respiration driven by glutamate/malate at 100XCmax ([7]; 100XCmax): 0.71±0.08
State 4 respiration driven by succinate at 100XCmax ([7]; 100XCmax): 0
RCC II at 1.0XCmax ([8]; 1.0XCmax): 0
RCC II at 2.5XCmax ([8]; 2.5XCmax): 0
RCC II at 5XCmax ([8]; 5XCmax): 0
RCC II at 10XCmax ([8]; 10XCmax): 0
RCC II at 20XCmax ([8]; 20XCmax): 0
RCC II at 30XCmax ([8]; 30XCmax): 0
RCC II at 50XCmax ([8]; 50XCmax): 0
RCC II at 100XCmax ([8]; 100XCmax): 0
Cytochrome c release 1XCmax ([9]; 1XCmax): 0
Cytochrome c release 2.5XCmax ([9]; 2.5XCmax): 0
Cytochrome c release 5XCmax ([9]; 5XCmax): 0
Cytochrome c release 10XCmax ([9]; 10XCmax): 0
Cytochrome c release 20XCmax ([9]; 20XCmax): 0
Cytochrome c release 30XCmax ([9]; 30XCmax): 0
Cytochrome c release 50XCmax ([9]; 50XCmax): 13.84±2.24 percentage of the positive control group
Cytochrome c release 100XCmax ([9]; 100XCmax): 8.09±1.58 percentage of the positive control group

— paper PMC5515969, “Effects of 31 FDA approved small-molecule kinase inhibitors on isolated rat liver mitochondria” (Archives of Toxicology, 2016)
